From US11337970B2, “Inhibitors of indoleamine 2,3-dioxygenase and methods of their use” (BRISTOL-MYERS SQUIBB COMPANY, priority 2016, dated 2022)

Molecular target: T1, indoleamine 2,3-dioxygenase (IDO) (Homo sapiens, UniProt P14902)
T1 construct: host or cells: HeLa cells stimulated with IFNγ (25 ng/mL)
Assay: HeLa cell-based indoleamine 2,3-dioxygenase (IDO) assay (kynurenine production)
Conditions: HeLa cells, IFNγ 25 ng/mL, 48 hour incubation, absorbance at 480 nm
Experimental: Assessment of inhibitor activity in HeLa cell-based indoleamine 2,3-dioxygenase (IDO) assay:
HeLa (ATCC® CCL-2) cells were obtained from the ATCC® and cultured in Dulbecco's Modified Eagle Medium supplemented with 4.5 g/L glucose, […] (#10-013-CV, Corning), 2 mM L-alanyl-L-glutamine dipeptide (#35050-061, Gibco), 100U/mL penicillin, 100 μg/mL streptomycin (#SV30010, HyClone) and 10% fetal bovine serum (#SH30071.03 HyClone). Cells were maintained in a humidified incubator at 37° C. in 5% CO2.
IDO activity was assessed as a function of kynurenine production as follows: HeLa cells were seeded in a 96-well culture plate at a density of 5,000 cells/well and allowed to equilibrate overnight. After 24 hours, the media was aspirated and replaced with media containing IFNγ (#285-IF/CF, R&D Systems) at a final concentration of 25 ng/mL. A serial dilution of each test compound was added to the cells in a total volume of 200 μL of culture medium. After a further 48 hour incubation, 170 μL of supernatant was transferred from each well to a fresh 96-well plate. 12.1 μL of 6.1N trichloroacetic acid (#T0699, Sigma-Aldrich) was added to each well and mixed, followed by incubation at 65° C. for 20 minutes to hydrolyze N-formylkynurenine, the product of indoleamine 2,3-dioxygenase, to kynurenine. The reaction mixture was then centrifuged for 10 mins at 500×g to sediment the precipitate. 100 μL of the supernatant was transferred from each well to afresh 96-well plate. 100 μl of 2% (w/v) p-dimethylaminobenzaldehyde (#15647-7, Sigma-Aldrich) in acetic acid (#A6283, Sigma-Aldrich) was added to each well mixed and incubated at room temperature for 20 mins. Kynurenine concentrations were determined by measuring absorbance at 480 nm and calibrating against an L-kynurenine (#K8625, Sigma-Aldrich) standard curve using a SPECTRAMAX® M2e microplate reader (Molecular Devices). The percentage activity at each inhibitor concentration was determined and IC50 values assessed using nonlinear regression.

T1 sequence (P14902 whole entry): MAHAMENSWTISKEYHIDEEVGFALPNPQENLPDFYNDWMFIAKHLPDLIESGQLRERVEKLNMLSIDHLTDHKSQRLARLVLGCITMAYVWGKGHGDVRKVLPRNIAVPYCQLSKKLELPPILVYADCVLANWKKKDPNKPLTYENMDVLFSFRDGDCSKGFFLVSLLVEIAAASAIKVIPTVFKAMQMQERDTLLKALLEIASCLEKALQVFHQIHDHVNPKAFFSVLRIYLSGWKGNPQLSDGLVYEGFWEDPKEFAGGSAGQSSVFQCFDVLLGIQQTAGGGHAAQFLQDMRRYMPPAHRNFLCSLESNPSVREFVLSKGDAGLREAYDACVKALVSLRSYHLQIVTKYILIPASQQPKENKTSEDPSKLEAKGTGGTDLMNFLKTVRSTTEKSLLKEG

SMILES | IC50 [nM]
CCC(c1nc2ccc(Cl)cc2[nH]1)[C@H]1CC[C@@H](c2ccnc(F)c2C)CC1 (single isomer, unassigned) [Example 23-2, 6-chloro-2-(1-((cis)-4-(2-fluoro-3-methylpyridin-4-yl)cyclohexyl)-3-propyl)-1H-benzo[d]imidazole] | 3.2
C[C@@H](c1nc2cc(C(F)(F)F)cc(Cl)c2[nH]1)[C@H]1CC[C@@H](c2ccnc3ccc(F)cc32)CC1 [Example 46, 4-((1S,4s)-4-((R)-1-(7-chloro-5-(trifluoromethyl)-1H-benzo[d]imidazol-2-yl)ethyl)cyclohexyl)-6-fluoroquinoline] | 12.2
CCC(c1nc2ccc(Cl)cc2[nH]1)[C@H]1CC[C@@H](c2ccnc(F)c2C)CC1 (single isomer, unassigned) [Example 23-1, 6-chloro-2-(1-((cis)-4-(2-fluoro-3-methylpyridin-4-yl)cyclohexyl)-3-propyl)-1H-benzo[d]imidazole] | 998
CCOCC(c1nc2ccc(Cl)cc2[nH]1)[C@H]1CC[C@@H](c2ccnc(F)c2C)CC1 (single isomer, unassigned) [Example 25-2, 6-chloro-2-(2-ethoxy-1-((cis)-4-(2-fluoro-3-methylpyridin-4-yl)cyclohexyl)ethyl)-1H-benzo[d]imidazole] | 22.9
CCC(c1nc2ncc(Cl)cc2[nH]1)[C@H]1CC[C@@H](c2ccnc(F)c2C)CC1 (single isomer, unassigned) [Example 24-2, 6-chloro-2-(1-((cis)-4-(2-fluoro-3-methylpyridin-4-yl)cyclohexyl)-3-propyl)-1H-imidazo[4,5-b]pyridine] | 2.7
CCC(c1nc2ncc(Cl)cc2[nH]1)[C@H]1CC[C@@H](c2ccnc3ccc(C(F)(F)F)cc32)CC1 (single isomer, unassigned) [Example 22-2, 4-((cis)-4-(1-(6-chloro-1H-imidazo[4,5-b]pyridin-2-yl)propyl)cyclohexyl)-6-(trifluoromethyl)quinoline] | 99.1
CCOCC(c1nc2ccc(Cl)cc2[nH]1)[C@H]1CC[C@@H](c2ccnc(F)c2C)CC1 (mixture of isomers) [Example 25, (±)-6-chloro-2-(2-ethoxy-1-((cis)-4-(2-fluoro-3-methylpyridin-4-yl)cyclohexyl)ethyl)-1H-benzo[d]imidazole] | 44.9
CC[C@H](c1nc2ncc(Cl)cc2[nH]1)[C@H]1CC[C@@H](c2ccnc3ccc(F)cc32)CC1 (single isomer, unassigned) [Example 21-1, 4-(4-(1-(6-chloro-1H-imidazo[4,5-b]pyridin-2-yl)propyl)cyclohexyl)-6-fluoroquinoline] | 2
CC[C@H](c1nc2ncc(Cl)cc2[nH]1)[C@H]1CC[C@@H](c2ccnc3ccc(F)cc32)CC1 (single isomer, unassigned) [Example 21-2, 4-(4-(1-(6-chloro-1H-imidazo[4,5-b]pyridin-2-yl)propyl)cyclohexyl)-6-fluoroquinoline] | 1000
CC(c1nc2ccc(Cl)cc2[nH]1)C1CCC(c2ccnc3ncccc23)CC1 (single isomer, unassigned) [Example 35-2] | 14.3
CCC(c1nc2ncc(Cl)cc2[nH]1)[C@H]1CC[C@@H](c2ccnc(F)c2C)CC1 (single isomer, unassigned) [Example 24-1, 6-chloro-2-(1-((cis)-4-(2-fluoro-3-methylpyridin-4-yl)cyclohexyl)-3-propyl)-1H-imidazo[4,5-b]pyridine] | 375
C[C@@H](c1ncc2ccccn12)[C@H]1CC[C@@H](c2ccnc3ccc(F)cc32)CC1 [Example 27, 6-fluoro-4-((cis)-4-((R)-1-(imidazo[1,5-a]pyridin-3-yl)ethyl)cyclohexyl)quinoline] | 836
C[C@@H](c1nc2cc(Cl)c(Cl)cc2[nH]1)[C@H]1CC[C@@H](c2ccnc3ccc(F)cc32)CC1 [Example 44, 4-((1S,4s)-4-((R)-1-(5,6-dichloro-1H-benzo[d]imidazol-2-yl)ethyl)cyclohexyl)-6-fluoroquinoline] | 5.5
